In data set [1] the target is inotocin R (T. castaneum). The data set can be described thus: Radioligand displacement of [3H] inotocin, inotocin receptor from T. castaneum. On the set-up: species or system Tribolium castaneum. The conditions noted are these: saturation binding experiments. As for the experimental part:
(§1) Chinese Hamster Ovary cells (CHO) were cultured in Ham’s F12 media supplemented with 10% fetal bovine serum (FBS), 1% PenStrep (all from Sigma-Aldrich, Munich, Germany) and grown in a humidified atmosphere of 37 °C, 5% CO2 and passaged on average twice per week. CHO cells were used for expression of inotocin receptor (L. niger, T. castaneum). Cell transfections were carried out with 10 μg of plasmid using Lipofectamine LTX (Life Technologies, Invitrogen, Carlsbad, USA) for invertebrate receptors. For the expression of human OTR, V1aR, V1bR and V2R, HEK293 cells were transfected using jetPRIME (Polyplus Transfections, Illkirch-Graffenstaden, France)[35]. Cells were maintained in DMEM (GE Healthcare Hy Clone™, Logan, USA) supplemented with 10% FBS and 1% PenStrep.
(§2) Unbound ligands were washed off (Skatron Cell Harvester). […] Bindings of [^3H] AVP and [^3H] […] Bindings of [^3H] inotocin to membranes (10 μg) expressing INTR from L. niger, or [^3H] inotocin to membranes (10 μg) expressing INTR from T. castaneum, respectively, were assayed for displacement with an excess of inotocin (10^−11 to 10^−5 M) (n ≥ 3, except where otherwise stated). […] Specific binding was calculated by subtracting the non-specific binding from the total binding. […] Inhibition constants (Ki) were calculated from IC50 using the method by Cheng and Prusoff[65].

The target of data set [2] is inotocin R (L. niger). The data set is described as follows: Radioligand displacement of [3H] inotocin, inotocin receptor from L. niger. The arrangement: species or system Lasius niger. The conditions noted are these: saturation binding experiments. The procedure:
as §1, §2
Background: Loss of bound radioactivity is the signal in a displacement assay; it reports binding, not function.

In data set [3] the target is T1, human V2R (Homo sapiens, UniProt P30518).
T1 construct: expressed in transfected cells; host or cells: HEK293 cells, transient (jetPRIME); for the reporter assay co-transfected with pGL4.29 [luc2P/CRE/Hygro]
T1 sequence (P30518 whole entry): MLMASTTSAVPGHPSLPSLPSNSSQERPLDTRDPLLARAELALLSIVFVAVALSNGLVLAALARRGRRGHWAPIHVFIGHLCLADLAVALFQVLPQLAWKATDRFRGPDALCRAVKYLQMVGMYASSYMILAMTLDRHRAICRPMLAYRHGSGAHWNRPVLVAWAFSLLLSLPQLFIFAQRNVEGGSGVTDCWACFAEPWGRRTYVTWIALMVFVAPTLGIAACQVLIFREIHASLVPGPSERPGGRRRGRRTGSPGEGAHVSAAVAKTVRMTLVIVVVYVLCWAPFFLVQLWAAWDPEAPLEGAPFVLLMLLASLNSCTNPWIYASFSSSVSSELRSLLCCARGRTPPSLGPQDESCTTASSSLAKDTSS
The data set can be described thus: cell-based. The conditions noted are these: luciferase reporter, CRE response element; mean ± SEM; read-out: Potency (EC50). The procedure:
as §1
(§3) Activation of Gq-signalling via the human V1aR, V1bR and OTR, as well as the insect INTR was measured by inositol-1-phosphate (IP1) quantification using an IP1 Tb kit (Cisbio, Codolet, France). Transfected cells were seeded in 96 well-plates, with a cell density of 10^4 cells per well. Cell culture media was removed from the wells after 6 h and 70 μL of peptide of interest, prepared in IP1 1X Stimulation Buffer at the desired concentrations, was added. Samples were measured in technical triplicates. After 1 h incubation at 37 °C, 15 μL of IP1-d2 was added, following the same volume of Ab-cryptate. […] Activation of Gs-signalling via the human V2R was measured using a luciferase reporter assay. HEK293 transiently expressing V2R were co-transfected with the pGL4.29 [luc2P/CRE/Hygro] (Promega, Mannheim, Germany) plasmid. […] For cell-based functional assays (luciferase and IP1), subtraction of the negative control (stimulation buffer) was applied to all data set. The normalization was performed to the highest value of the positive control from at least 4 independent experiments. Data were fitted using GraphPad Prism 5.0 with an equation for non-linear regression (sigmoidal, slope fit of 1). Values are reported as mean ± SEM. For Schild regression analysis, each concentration-ratio (r) was calculated as the agonist EC50 in the presence of a respective concentration of [D-Arg8]-inotocin by the EC50 of the agonist alone.

The target in data set [4] is T2, human V1bR (Homo sapiens, UniProt P47901).
T2 construct: expressed in transfected cells; host or cells: HEK293 cells, transient (jetPRIME)
T2 sequence (P47901 1-424): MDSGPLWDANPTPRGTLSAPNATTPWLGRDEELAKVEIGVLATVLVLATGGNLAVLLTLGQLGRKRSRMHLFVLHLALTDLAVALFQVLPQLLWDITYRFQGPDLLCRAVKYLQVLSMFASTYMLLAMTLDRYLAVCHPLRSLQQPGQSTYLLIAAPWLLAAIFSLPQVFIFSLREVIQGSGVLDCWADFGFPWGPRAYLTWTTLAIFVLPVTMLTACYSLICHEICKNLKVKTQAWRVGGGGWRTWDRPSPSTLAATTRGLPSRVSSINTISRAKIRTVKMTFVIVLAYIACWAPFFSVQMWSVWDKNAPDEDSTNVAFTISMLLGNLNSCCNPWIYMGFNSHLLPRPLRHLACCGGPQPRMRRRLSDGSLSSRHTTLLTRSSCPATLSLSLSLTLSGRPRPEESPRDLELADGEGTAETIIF
The data set can be described thus: cell-based. The conditions noted are these: IP1 accumulation; mean ± SEM; read-out: Potency (EC50). As for the experimental part: as §1, §3

The target in data set [5] is T2, human V1bR. The data set can be described thus: Radioligand displacement of [3H] vasopressin, human V1bR membranes. It is filed as binding. The conditions noted are these: Affinity (Ki), displacement of [3H] vasopressin; mean ± SEM.
Text: Unbound ligands were washed off (Skatron Cell Harvester). […] For the displacement at the human OTR, V1aR, V1bR and V2R the normalization to 100% refers on average to 0.49, 1.4, 0.36, 1.1 pmoles of ligand bound per milligram of membrane for human OTR, V1aR, V1bR and V2R, respectively. […] For the displacement at the insect receptors the normalization to 100% refers on average to 0.65 and 0.69 pmoles of ligand bound per milligram of membrane for inotocin receptor from L. niger and T. castaneum, respectively. Bindings of [^3H] inotocin to membranes (10 μg) expressing INTR from L. niger, or [^3H] inotocin to membranes (10 μg) expressing INTR from T. castaneum, respectively, were assayed for displacement with an excess of inotocin (10^−11 to 10^−5 M) (n ≥ 3, except where otherwise stated). […] Specific binding was calculated by subtracting the non-specific binding from the total binding. IC50 values were obtained by fitting the data to a three-parameter logistic Hill equation. Inhibition constants (Ki) were calculated from IC50 using the method by Cheng and Prusoff[65].
Data set [6] concerns the target T1, human V2R. The data set is described as follows: Radioligand displacement of [3H] vasopressin, human V2R membranes. It is filed as binding. The conditions noted are these: Affinity (Ki), displacement of [3H] vasopressin; mean ± SEM. The procedure:
as §1
Unbound ligands were washed off (Skatron Cell Harvester). […] Bindings of [^3H] AVP and [^3H] […] Bindings of [^3H] inotocin to membranes (10 μg) expressing INTR from L. niger, or [^3H] inotocin to membranes (10 μg) expressing INTR from T. castaneum, respectively, were assayed for displacement with an excess of inotocin (10^−11 to 10^−5 M) (n ≥ 3, except where otherwise stated). […] Specific binding was calculated by subtracting the non-specific binding from the total binding. IC50 values were obtained by fitting the data to a three-parameter logistic Hill equation. Inhibition constants (Ki) were calculated from IC50 using the method by Cheng and Prusoff[65].

Data set [7] addresses T3, human OTR (Homo sapiens, UniProt P30559).
T3 construct: expressed in transfected cells; host or cells: HEK293 cells, transient (jetPRIME)
T3 sequence (P30559 1-389): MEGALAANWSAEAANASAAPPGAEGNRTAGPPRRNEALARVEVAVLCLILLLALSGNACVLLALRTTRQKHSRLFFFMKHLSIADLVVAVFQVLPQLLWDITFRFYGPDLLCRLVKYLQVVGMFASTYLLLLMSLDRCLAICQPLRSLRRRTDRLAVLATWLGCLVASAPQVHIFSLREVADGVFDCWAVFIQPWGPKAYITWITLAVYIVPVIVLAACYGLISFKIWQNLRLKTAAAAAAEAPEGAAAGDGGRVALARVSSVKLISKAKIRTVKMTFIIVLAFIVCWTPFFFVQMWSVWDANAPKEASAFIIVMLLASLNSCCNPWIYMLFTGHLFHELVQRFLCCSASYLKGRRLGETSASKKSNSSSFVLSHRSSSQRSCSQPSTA
The data set can be described thus: IP1 accumulation, HEK293 cells expressing human OTR. The format is cell-based. As for the experimental part:
as §1, §3

Data set [8] addresses T3, human OTR. The data set is described as follows: Radioligand displacement of [3H] oxytocin, human OTR membranes. The following applies: read-out: Affinity (Ki). It is filed as binding. The procedure:
as §1, §2

Data set [9] deals with T4, human V1aR (Homo sapiens, UniProt P37288). The data set can be described thus: IP1 accumulation, HEK293 cells expressing human V1aR. It is filed as cell-based. The arrangement: expressed in transfected cells; host or cells: HEK293 cells, transient (jetPRIME). As for the experimental part: as §1, §3
T4 sequence (P37288 whole entry): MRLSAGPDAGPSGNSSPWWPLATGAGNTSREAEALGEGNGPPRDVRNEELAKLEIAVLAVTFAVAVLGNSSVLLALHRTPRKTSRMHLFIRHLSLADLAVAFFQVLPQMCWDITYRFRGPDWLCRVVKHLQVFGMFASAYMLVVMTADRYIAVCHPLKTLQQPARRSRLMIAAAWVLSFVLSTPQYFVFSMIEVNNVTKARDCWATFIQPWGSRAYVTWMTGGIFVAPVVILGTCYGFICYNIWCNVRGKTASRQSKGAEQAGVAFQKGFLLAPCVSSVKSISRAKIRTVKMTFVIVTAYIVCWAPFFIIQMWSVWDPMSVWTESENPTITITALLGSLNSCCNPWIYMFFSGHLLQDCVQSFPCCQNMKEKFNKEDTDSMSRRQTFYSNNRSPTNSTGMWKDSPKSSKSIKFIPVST
The format of data set [10] is in vitro ADME, human. The following applies: for half-life: human serum, 37 °C, 100 μM peptide, read-out: half-life t½ (converted); for degradation in human serum: within 24 h. The procedure:
Serum stability was tested as described previously. Briefly, serum was obtained prepared from human blood (self-donor), allowed to coagulate for 2 h at 23 °C and centrifuged at 12,000 × g for 10 min. Peptides (100 μM) were incubated in serum for 2, 4, 6, 8, 10 and 24 h at 37 °C. To evaluate peptide stability, aliquots ([…]) were analysed via RP-HPLC (UltiMate 3000, Thermo Scientific Dionex, Vienna, Austria) on a C18 column (Phenomenex Kinetex, Aschaffenburg, Germany) with a 3% gradient using 0.1% (v/v) TFA and 90/10/0.1% (v/v/v) acetonitrile/H2O/TFA as eluents. Half-life (t1/2) of peptides was calculated using non-linear regression analysis using Graph Pad Prism.
Supplementary Fig. 5. Human serum stability of the inotocin D-analogue. [D-Arg 8 ]-inotocin […]
serum and their stability monitored via HPLC over a time course of 2, 4, 6, 8, 10 and 24 h. Melittin, a haemolytic peptide from the bee venom was used as a positive control f or peptide degradation.
Area under the curves of samples was determined and correlated to the negative control analyte, which was dissolved in 0.1% TFA; thus they were not subject to degradation and were assumed therefore as 100%. Peptide stability was expressed in percentage of peptide remaining.
(1 picture or pasted object on this page, not shown here)

In data set [11] the target is T4, human V1aR. The data set is described as follows: Radioligand displacement of [3H] vasopressin, human V1aR membranes. The format is binding. The following applies: read-out: Affinity (Ki). On the set-up: expressed in transfected cells; host or cells: HEK293 cells, transient (jetPRIME). As for the experimental part:
as §1, §2

Data set [12] deals with inotocin R (L. niger). The data set is described as follows: IP1 accumulation, CHO cells expressing L. niger inotocin receptor. It is filed as cell-based, Lasius niger. The conditions noted are these: 10 µM peptide, L. niger INTR. As for the experimental part: as §1
(§4) Activation of Gq-signalling via the human V1aR, V1bR and OTR, as well as the insect INTR was measured by inositol-1-phosphate (IP1) quantification using an IP1 Tb kit (Cisbio, Codolet, France). Transfected cells were seeded in 96 well-plates, with a cell density of 10^4 cells per well. […] Samples were measured in technical triplicates. […] Activation of Gs-signalling via the human V2R was measured using a luciferase reporter assay. […] For Schild regression analysis, each concentration-ratio (r) was calculated as the agonist EC50 in the presence of a respective concentration of [D-Arg8]-inotocin by the EC50 of the agonist alone.

Data set [13] concerns inotocin R (T. castaneum). The data set is described as follows: IP1 accumulation, CHO cells expressing T. castaneum inotocin receptor. It is filed as cell-based, Tribolium castaneum. The conditions noted are these: 10 µM peptide, T. castaneum INTR. The procedure:
as §1, §4

Setting [14] is: IP1 accumulation, mean ± SEM, read-out: Potency (EC50).

Like-named read-outs stand apart in the source and are kept apart here. Bridge positions count the residues as written; N and C are the ends. Peptide text beside a SMILES is read from it. A value given as a limit tells only on which side of the number the result lay.

In general, Kd refers to a measure of binding affinity in units of concentration. Lower therefore signals a tighter complex. On to “[^3H] inotocin: tritiated inotocin radioligand, C[4,5-3H]LITNCPGR-NH2 as printed (tritium label; N-terminal Cys; C-terminal amide)”, for which the dissociation constant (Kd) stood at 2.7 nM in data set [1] and 0.9 nM in [2].
As a reminder, the EC50 is the concentration giving half of the maximal effect. As usually defined, the Ki is a measure of affinity in units of concentration, obtained from inhibition or displacement. A word on the half-life: it is the time in which the quantity being followed falls by half. In the case of `CC[C@H](C)[C@@H]1NC(=O)[C@H](CC(C)C)NC(=O)[C@@H](N)CSSC[C@@H](C(=O)N2CCC[C@H]2C(=O)N[C@@H](CCCNC(=N)N)C(=O)NCC(N)=O)NC(=O)[C@H](CC(N)=O)NC(=O)[C@H]([C@@H](C)O)NC1=O` [inotocin] (H-CLITNCPRG-NH2; disulfide 1-6), the EC50 was over 1500 nM in data set [3]; 56 ± 9.7 nM in [4]; over 100000 nM in data set [7] (setting [14]); over 10000 nM in data set [7] (IP1 response, human OTR, read-out: EC50); over 100000 nM in data set [9] (setting [14]); over 10000 nM in [9] (IP1 response, human V1aR, read-out: EC50). The Ki in [5] was 12 ± 6.5 nM; in [6] it was over 100000 nM; in data set [8], 62 ± 37 nM; in data set [11] it was 11 ± 4.4 nM. Moreover, the half-life in data set [10] was 2.8 h. The “degradation in human serum” value in [10] is reported as “fully degraded”.
Take “1-desamino-8-D-arginine-vasopressin [Desmopressin]”: the “activation (IP1 formation)” value in [12] and in data set [13] was “inactive” throughout.
As for `NC(=O)CC[C@@H]1NC(=O)[C@H](Cc2ccccc2)NC(=O)[C@H](Cc2ccc(O)cc2)NC(=O)[C@@H](N)CSSC[C@@H](C(=O)N2CCC[C@H]2C(=O)N[C@@H](CCCN=C(N)N)C(=O)NCC(N)=O)NC(=O)[C@H](CC(N)=O)NC1=O` [vasopressin, arginine-vasopressin], in data set [10], the half-life was 1 h and the “degradation in human serum” value was “fully degraded”.

Source of the values: paper PMC5286520 (Scientific Reports, 2017).
